Calls of active or inactive are those of the source. The rule behind the calls is not given here.
Tested on: CCRIS mutagenicity, Ames/micronucleus/aberration tests
Test: CCRIS mutagenicity studies
[1] = Test System: AMES SALMONELLA TYPHIMURIUM, Strain/Indicator: TA98, Metabolic Activation: NONE, Method: PREINCUBATION
[2] = Test System: AMES SALMONELLA TYPHIMURIUM, Strain/Indicator: TA100, Metabolic Activation: NONE, Method: PREINCUBATION

CCCCC1C(=O)N(c2ccccc2)N(c2ccc(O)cc2)C1=O (stereo not drawn)
mutagenic call (Test System: AMES SALMONELLA TYPHIMURIUM, Strain/Indicator: TA97A, Metabolic Activation: NONE, Method: STANDARD PLATE): inactive; negative | mutagenic call (Test System: AMES SALMONELLA TYPHIMURIUM, Strain/Indicator: TA97A, Metabolic Activation: RAT LIVER S-9, PHENOBARBITAL, Method: STANDARD PLATE): inactive; negative | mutagenic call (Test System: AMES SALMONELLA TYPHIMURIUM, Strain/Indicator: TA98, Metabolic Activation: GUINEA PIG, LIVER, S-9, PCB, Method: PREINCUBATION): inactive; negative | mutagenic call (Test System: AMES SALMONELLA TYPHIMURIUM, Strain/Indicator: TA98, Metabolic Activation: HAMSTER, LIVER, S-9, PCB, Method: PREINCUBATION): inactive; negative | mutagenic call (Test System: AMES SALMONELLA TYPHIMURIUM, Strain/Indicator: TA98, Metabolic Activation: MOUSE, LIVER, S-9, PCB, Method: PREINCUBATION): inactive; negative | mutagenic call [1]: inactive; negative | mutagenic call (Test System: AMES SALMONELLA TYPHIMURIUM, Strain/Indicator: TA98, Metabolic Activation: NONE, Method: STANDARD PLATE): inactive; negative | mutagenic call (Test System: AMES SALMONELLA TYPHIMURIUM, Strain/Indicator: TA98, Metabolic Activation: RAT LIVER S-9, PHENOBARBITAL, Method: STANDARD PLATE): inactive; negative | mutagenic call (Test System: AMES SALMONELLA TYPHIMURIUM, Strain/Indicator: TA98, Metabolic Activation: RAT, LIVER, S-9, PCB, Method: PREINCUBATION): inactive; negative | mutagenic call (Test System: AMES SALMONELLA TYPHIMURIUM, Strain/Indicator: TA100, Metabolic Activation: GUINEA PIG, LIVER, S-9, PCB, Method: PREINCUBATION): inactive; negative | mutagenic call (Test System: AMES SALMONELLA TYPHIMURIUM, Strain/Indicator: TA100, Metabolic Activation: HAMSTER, LIVER, S-9, PCB, Method: PREINCUBATION): inactive; negative | mutagenic call (Test System: AMES SALMONELLA TYPHIMURIUM, Strain/Indicator: TA100, Metabolic Activation: MOUSE, LIVER, S-9, PCB, Method: PREINCUBATION): inactive; negative | mutagenic call [2]: inactive; negative | mutagenic call (Test System: AMES SALMONELLA TYPHIMURIUM, Strain/Indicator: TA100, Metabolic Activation: NONE, Method: STANDARD PLATE): inactive; negative | mutagenic call (Test System: AMES SALMONELLA TYPHIMURIUM, Strain/Indicator: TA100, Metabolic Activation: RAT LIVER S-9 PHENOBARBITAL, Method: STANDARD PLATE): inactive; negative | mutagenic call (Test System: AMES SALMONELLA TYPHIMURIUM, Strain/Indicator: TA100, Metabolic Activation: RAT, LIVER, S-9, PCB, Method: PREINCUBATION): active; positive | mutagenic call (Test System: AMES SALMONELLA TYPHIMURIUM, Strain/Indicator: TA102, Metabolic Activation: NONE, Method: STANDARD PLATE): inactive; negative | mutagenic call (Test System: AMES SALMONELLA TYPHIMURIUM, Strain/Indicator: TA102, Metabolic Activation: RAT LIVER S-9, PHENOBARBITAL, Method: STANDARD PLATE): inactive; negative

O=c1ccc(=O)[nH][nH]1
mutagenic call (End Point: IN VITRO CHROMOSOMAL ABERRATIONS, Test System: HUMAN PERIPHERAL BLOOD LYMPHOCYTES, Metabolic Activation: NONE): inactive; negative | mutagenic call (End Point: IN VITRO MICRONUCLEUS, Test System: HUMAN PERIPHERAL BLOOD LYMPHOCYTES, Metabolic Activation: NONE): inactive; negative | mutagenic call (End Point: IN VITRO MICRONUCLEUS, Test System: HUMAN PERIPHERAL BLOOD LYMPHOCYTES, Metabolic Activation: S-9): inactive; negative | mutagenic call (Test System: AMES SALMONELLA TYPHIMURIUM, Strain/Indicator: TA98, Metabolic Activation: HAMSTER, LIVER, S-9, AROCLOR 1254 (10%), Method: PREINCUBATION): inactive; negative | mutagenic call [1]: inactive; negative | mutagenic call (Test System: AMES SALMONELLA TYPHIMURIUM, Strain/Indicator: TA98, Metabolic Activation: RAT, LIVER, S-9, AROCLOR 1254 (10%), Method: PREINCUBATION): inactive; negative | mutagenic call (Test System: AMES SALMONELLA TYPHIMURIUM, Strain/Indicator: TA100, Metabolic Activation: HAMSTER, LIVER, S-9, AROCLOR 1254 (10%), Method: PREINCUBATION): inactive; negative | mutagenic call [2]: inactive; negative | mutagenic call (Test System: AMES SALMONELLA TYPHIMURIUM, Strain/Indicator: TA100, Metabolic Activation: RAT, LIVER, S-9, AROCLOR 1254 (10%), Method: PREINCUBATION): inactive; negative | mutagenic call (Test System: AMES SALMONELLA TYPHIMURIUM, Strain/Indicator: TA1535, Metabolic Activation: HAMSTER, LIVER, S-9, AROCLOR 1254 (10%), Method: PREINCUBATION): inactive; negative | mutagenic call (Test System: AMES SALMONELLA TYPHIMURIUM, Strain/Indicator: TA1535, Metabolic Activation: NONE, Method: PREINCUBATION): inactive; negative | mutagenic call (Test System: AMES SALMONELLA TYPHIMURIUM, Strain/Indicator: TA1535, Metabolic Activation: RAT, LIVER, S-9, AROCLOR 1254 (10%), Method: PREINCUBATION): inactive; negative | mutagenic call (Test System: AMES SALMONELLA TYPHIMURIUM, Strain/Indicator: TA1537, Metabolic Activation: HAMSTER, LIVER, S-9, AROCLOR 1254 (10%), Method: PREINCUBATION): inactive; negative | mutagenic call (Test System: AMES SALMONELLA TYPHIMURIUM, Strain/Indicator: TA1537, Metabolic Activation: NONE, Method: PREINCUBATION): inactive; negative | mutagenic call (Test System: AMES SALMONELLA TYPHIMURIUM, Strain/Indicator: TA1537, Metabolic Activation: RAT, LIVER, S-9, AROCLOR 1254 (10%), Method: PREINCUBATION): inactive; negative

CC(C)S(=O)(=O)Cl
mutagenic call [1]: inactive; negative | mutagenic call (Test System: AMES SALMONELLA TYPHIMURIUM, Strain/Indicator: TA98, Metabolic Activation: RAT, LIVER, S-9, PHENOBARBITAL, Method: PREINCUBATION): active; positive | mutagenic call [2]: active; positive | mutagenic call (Test System: AMES SALMONELLA TYPHIMURIUM, Strain/Indicator: TA100, Metabolic Activation: RAT, LIVER, S-9, PHENOBARBITAL, Method: PREINCUBATION): active; positive

Cc1ccc2nc3c4c(ccc3c(C)c2c1)[C@H](O)[C@@H](O)C=C4
mutagenic call (Test System: AMES SALMONELLA TYPHIMURIUM, Strain/Indicator: TA100, Metabolic Activation: RAT, LIVER, S-9, AROCLOR 1254, Method: STANDARD PLATE): active; positive
